Source: patent publication US10982284B2, “Compositions and methods APC, CREB, and BAD pathways to assess and affect cancer” (H. Lee Moffitt Cancer Center and Research Institute, Inc., priority 2011, dated 2021)

How the values were obtained:
Assay in all cases: CellTiter-Blue cell viability assay
Assay type in all cases: cell-based, human
[1] = test system: CAOV2; settings: CAOV2 ovarian cancer cell line; 72 hours; 50% reduction in growth/viability
From the text: (§1) Ovarian cancer cell lines were obtained from the American Type Culture Collection (Manassas, Va.) (CAOV3, OV90, OVCAR3, SKOV3, TO[…]); from the European Collection of Cell Cultures, Salisbury, UK (A2780CP, A2780S); or from Kyoto University, Kyoto, Japan ([…], Tyknu, and TyknuC is R) or were kind gifts from Dr. Patricia Kruk, Department of Pathology, College of Medicine, University of South Florida, Tampa, Fla., and Susan Murphy, PhD, Dept of OBGYN/Division of GYN Oncology, Duke University, Durham, N.C. […] Cell lines were maintained in RPMI-1640 (Invitrogen, Carlsbad, Calif.) supplemented with 10% fetal bovine serum (Fisher Scientific, Pittsburgh, Pa.), 1% sodium pyruvate, 1% penicillin/streptomycin (Cellgro, Manassas, Va.), and 1% nonessential amino acids (HyClone, Hudson, N.H.). Mycoplasma testing was performed every 6 months following manufacturer's protocol (Lonza, Rockland, Me.). Drug activity was evaluated using a high-throughput CellTiter-Blue cell viability assay. […] After cell adherence, increasing concentrations of cisplatin, carboplatin (Sigma-Aldrich, St. Louis, Mo.), paclitaxel (Sequoia Research Products Ltd., Pangbourne, UK), or carboplatin plus paclitaxel (carbotaxol: constant molar ratio of carboplatin to paclitaxel of 20,000:1) were added to appropriate wells using an automated pipetting station. Four replicate wells were used for each drug concentration and vehicle controls. […] The cells were incubated with the drug for 72 hours, and 5 μL of CellTiter-Blue reagent (Promega Corp) was added to each well. Fluorescence was read at […] using a Synergy 4 microplate reader (Bio-Tek Instruments, Inc., Winooski, Vt.).

[2] = test system: IGR-OV1; settings: IGR-OV1 ovarian cancer cell line; 72 hours; 50% reduction in growth/viability
From the text: as §1

[3] = test system: C13; settings: C13 ovarian cancer cell line; 72 hours; 50% reduction in growth/viability
From the text: as §1

[4] = test system: CHIcisR; settings: CHIcisR ovarian cancer cell line; 72 hours; 50% reduction in growth/viability
From the text: as §1

[5] = test system: M41; settings: M41 ovarian cancer cell line; 72 hours; 50% reduction in growth/viability
From the text: as §1

[6] = test system: OVCA420; settings: OVCA420 ovarian cancer cell line; 72 hours; 50% reduction in growth/viability
From the text: as §1

[7] = test system: OVCAR3; settings: OVCAR3 ovarian cancer cell line; 72 hours; 50% reduction in growth/viability
From the text: as §1

[8] = test system: M41CSR; settings: M41CSR ovarian cancer cell line; 72 hours; 50% reduction in growth/viability
From the text: as §1

[9] = test system: OVCA433; settings: OVCA433 ovarian cancer cell line; 72 hours; 50% reduction in growth/viability
From the text: as §1

[10] = test system: OVCAR8; settings: OVCAR8 ovarian cancer cell line; 72 hours; 50% reduction in growth/viability
From the text: as §1

[11] = test system: IMCC5; settings: IMCC5 ovarian cancer cell line; 72 hours; 50% reduction in growth/viability
From the text: as §1

[12] = test system: OVCA429; settings: OVCA429 ovarian cancer cell line; 72 hours; 50% reduction in growth/viability
From the text: as §1

[13] = test system: TyknuCisR; settings: TyknuCisR ovarian cancer cell line; 72 hours; 50% reduction in growth/viability
From the text: as §1

[14] = test system: A2780S; settings: A2780S ovarian cancer cell line; 72 hours; 50% reduction in growth/viability
From the text: as §1

[15] = test system: OVCA432; settings: OVCA432 ovarian cancer cell line; 72 hours; 50% reduction in growth/viability
From the text: as §1

[16] = test system: BG1; settings: BG1 ovarian cancer cell line; 72 hours; 50% reduction in growth/viability
From the text: as §1

[17] = test system: OVCAR4; settings: OVCAR4 ovarian cancer cell line; 72 hours; 50% reduction in growth/viability
From the text: as §1

[18] = test system: Dov13; settings: Dov13 ovarian cancer cell line; 72 hours; 50% reduction in growth/viability
From the text: as §1

[19] = test system: OVCAR5; settings: OVCAR5 ovarian cancer cell line; 72 hours; 50% reduction in growth/viability
From the text: as §1

[20] = test system: A2008; settings: A2008 ovarian cancer cell line; 72 hours; 50% reduction in growth/viability
From the text: as §1

[21] = test system: CAOV3; settings: CAOV3 ovarian cancer cell line; 72 hours; 50% reduction in growth/viability
From the text: as §1

[22] = test system: MCAS; settings: MCAS ovarian cancer cell line; 72 hours; 50% reduction in growth/viability
From the text: as §1

[23] = test system: Ovary1847; settings: Ovary1847 ovarian cancer cell line; 72 hours; 50% reduction in growth/viability
From the text: as §1

[24] = test system: SK-OV-4; settings: SK-OV-4 ovarian cancer cell line; 72 hours; 50% reduction in growth/viability
From the text: as §1

[25] = test system: OV2008; settings: OV2008 ovarian cancer cell line; 72 hours; 50% reduction in growth/viability
From the text: as §1

[26] = test system: IMCC3; settings: IMCC3 ovarian cancer cell line; 72 hours; 50% reduction in growth/viability
From the text: as §1

[27] = test system: A2780CP; settings: A2780CP ovarian cancer cell line; 72 hours; 50% reduction in growth/viability
From the text: as §1

[28] = test system: OVCAR10; settings: OVCAR10 ovarian cancer cell line; 72 hours; 50% reduction in growth/viability
From the text: as §1

[29] = test system: CHI; settings: CHI ovarian cancer cell line; 72 hours; 50% reduction in growth/viability
From the text: as §1

[30] = test system: Tyknu; settings: Tyknu ovarian cancer cell line; 72 hours; 50% reduction in growth/viability
From the text: as §1

[31] = test system: HeyA8; settings: HeyA8 ovarian cancer cell line; 72 hours; 50% reduction in growth/viability
From the text: as §1

[32] = test system: OVCAR2; settings: OVCAR2 ovarian cancer cell line; 72 hours; 50% reduction in growth/viability
From the text: as §1

N.N.[Cl][Pt][Cl] [Cisplatin, cisplatin]
IC50 [1]: 4.5 µM
IC50 [2]: 1.4 µM
IC50 [3]: 17.9 µM
IC50 [4]: 1.3 µM
IC50 [5]: 12.8 µM
IC50 [6]: 13.7 µM
IC50 [7]: 1.3 µM
IC50 [8]: 13.5 µM
IC50 [9]: 8.8 µM
IC50 [10]: 75.3 µM
IC50 [11]: 4.9 µM
IC50 [12]: 5.8 µM
IC50 [13]: 17.7 µM
IC50 [14]: 4.7 µM
IC50 [15]: 1.4 µM
IC50 [16]: 36.4 µM
IC50 [17]: 20.5 µM
IC50 [18]: 24.6 µM
IC50 [19]: 12.9 µM
IC50 [20]: 1.5 µM
IC50 [21]: 34.4 µM
IC50 [22]: 61.3 µM
IC50 [23]: 8.7 µM
IC50 [24]: 13 µM
IC50 [25]: 3.5 µM
IC50 [26]: 22 µM
IC50 [27]: 43.8 µM
IC50 [28]: 32.5 µM
IC50 [29]: 4.9 µM
IC50 [30]: 4.8 µM
IC50 [31]: 33.1 µM
IC50 [32]: 3.7 µM
